Assays:
Type in all cases: binding
[1] = molecular target: T1, ~100 representative kinases (Homo sapiens, UniProt Q99986); assay: DSF 100 kinase selectivity screen; conditions: Protein VRK1; DSF; average of three replicates;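 also: compound tested at 20 µM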
T1 construct: Recombinant protein kinase domains with a concentration of 2 μM
T1 sequence (Q99986 1-396): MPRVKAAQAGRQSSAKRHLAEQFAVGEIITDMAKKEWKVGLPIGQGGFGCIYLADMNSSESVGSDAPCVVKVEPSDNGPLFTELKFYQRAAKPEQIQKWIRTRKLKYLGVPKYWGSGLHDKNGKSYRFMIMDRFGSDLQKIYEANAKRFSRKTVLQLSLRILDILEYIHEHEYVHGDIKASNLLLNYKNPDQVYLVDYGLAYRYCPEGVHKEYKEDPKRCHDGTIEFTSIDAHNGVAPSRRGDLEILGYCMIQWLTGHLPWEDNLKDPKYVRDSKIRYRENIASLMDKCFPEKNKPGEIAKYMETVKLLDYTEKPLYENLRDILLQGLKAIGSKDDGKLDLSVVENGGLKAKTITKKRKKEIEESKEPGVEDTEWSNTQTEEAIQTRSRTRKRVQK
Method: (§1) Recombinant protein kinase domains with a concentration of 2 μM were mixed with a 20 μM compound solution in dimethyl sulfoxide (DMSO), 20 mM Hepes (pH 7.5), and 500 mM NaCl. SYPRO Orange (5000×, Invitrogen) was added as a fluorescence probe (1μl/ml). Subsequently, temperature-dependent protein unfolding profiles were measured using the QuantStudio 5 realtime PCR machine (Thermo Fisher Scientific, Waltham, MA, USA). […] The temperature was raised with a step rate of 3°C/min. […] Differences in melting temperature are given as ΔTm values in degrees Celsius. […]

[2] = molecular target: T2, ~100 representative kinases (Homo sapiens, UniProt Q92630); assay: DSF 100 kinase selectivity screen; conditions: Protein DYRK2; average of three replicates;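 also: compound tested at 20 µM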
T2 construct: Recombinant protein kinase domains with a concentration of 2 μM
T2 sequence (Q92630 1-601): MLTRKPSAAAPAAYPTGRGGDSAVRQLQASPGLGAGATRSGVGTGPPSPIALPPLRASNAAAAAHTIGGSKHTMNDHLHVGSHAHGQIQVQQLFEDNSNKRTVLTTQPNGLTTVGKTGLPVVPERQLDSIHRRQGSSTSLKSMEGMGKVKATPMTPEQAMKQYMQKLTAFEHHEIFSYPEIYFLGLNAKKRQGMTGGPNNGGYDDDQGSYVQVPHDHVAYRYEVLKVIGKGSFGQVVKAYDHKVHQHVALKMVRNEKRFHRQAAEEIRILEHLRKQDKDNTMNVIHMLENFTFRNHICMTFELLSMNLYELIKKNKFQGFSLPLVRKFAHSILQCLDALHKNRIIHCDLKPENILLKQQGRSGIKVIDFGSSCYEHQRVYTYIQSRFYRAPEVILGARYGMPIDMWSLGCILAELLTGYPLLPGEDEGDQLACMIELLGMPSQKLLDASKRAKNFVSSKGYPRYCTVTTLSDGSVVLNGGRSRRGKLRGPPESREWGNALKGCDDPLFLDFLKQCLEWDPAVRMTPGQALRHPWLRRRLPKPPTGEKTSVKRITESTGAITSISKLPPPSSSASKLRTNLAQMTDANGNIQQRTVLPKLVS
Method: as §1

[3] = molecular target: T3, ~100 representative kinases (Homo sapiens, UniProt P49841); assay: DSF 100 kinase selectivity screen; conditions: protein GSK3B; average of three replicates;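 also: compound tested at 20 µM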
T3 construct: Recombinant protein kinase domains with a concentration of 2 μM
Method: as §1

[4] = molecular target: T4, ~100 representative kinases (Homo sapiens, UniProt O94768); assay: DSF 100 kinase selectivity screen; conditions: Protein STK17B; DSF; average of three replicates;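 also: compound tested at 20 µM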
T4 construct: Recombinant protein kinase domains with a concentration of 2 μM
T4 sequence (O94768 1-372): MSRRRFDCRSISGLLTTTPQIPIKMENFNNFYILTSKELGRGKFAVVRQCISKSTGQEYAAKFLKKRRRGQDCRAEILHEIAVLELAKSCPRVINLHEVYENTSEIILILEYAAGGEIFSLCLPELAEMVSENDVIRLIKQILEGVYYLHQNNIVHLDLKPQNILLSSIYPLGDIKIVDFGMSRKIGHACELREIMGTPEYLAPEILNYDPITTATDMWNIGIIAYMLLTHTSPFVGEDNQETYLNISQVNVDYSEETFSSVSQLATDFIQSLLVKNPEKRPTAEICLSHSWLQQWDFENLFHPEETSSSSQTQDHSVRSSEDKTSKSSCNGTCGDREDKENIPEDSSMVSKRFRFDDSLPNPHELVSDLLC
Method: as §1

LRRK2^KW = molecular target: T5, LRRK2^KW (Homo sapiens, UniProt Q5S007); assay: DSF thermal stabilization of LRRK2^KW; conditions: DSF, LRRK2^KW, 10 μM inhibitor
T5 construct: LRRK2 R1847 to E2527; His6-Z-tag (TEV cleavable) (N, cleaved yes); host or cells: Sf9 insect cells (baculovirus)
T5 sequence (Q5S007 1847-2527): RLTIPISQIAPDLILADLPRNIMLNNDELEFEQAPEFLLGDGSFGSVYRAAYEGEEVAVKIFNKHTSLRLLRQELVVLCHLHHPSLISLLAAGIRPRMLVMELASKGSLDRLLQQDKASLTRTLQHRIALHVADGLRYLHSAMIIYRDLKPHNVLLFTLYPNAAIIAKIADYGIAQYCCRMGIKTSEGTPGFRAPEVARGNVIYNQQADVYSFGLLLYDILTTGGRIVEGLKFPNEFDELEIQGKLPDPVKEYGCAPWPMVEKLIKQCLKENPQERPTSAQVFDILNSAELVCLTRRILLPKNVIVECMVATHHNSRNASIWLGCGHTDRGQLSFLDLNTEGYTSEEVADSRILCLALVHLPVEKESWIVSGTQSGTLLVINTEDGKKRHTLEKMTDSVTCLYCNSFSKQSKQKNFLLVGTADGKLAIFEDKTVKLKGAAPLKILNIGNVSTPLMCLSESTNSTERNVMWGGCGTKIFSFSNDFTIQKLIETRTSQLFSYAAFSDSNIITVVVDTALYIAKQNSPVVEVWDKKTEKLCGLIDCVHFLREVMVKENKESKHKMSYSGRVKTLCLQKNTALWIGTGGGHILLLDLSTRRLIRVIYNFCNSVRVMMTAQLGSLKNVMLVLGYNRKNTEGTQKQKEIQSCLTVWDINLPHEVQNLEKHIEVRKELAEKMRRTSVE
Outline: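 DSF on 4 μM LRRK2^KW in 20 mM Hepes pH 7.4, 150 mM NaCl, 0.5 mM TCEP, 0.5% glycerol, 20 μM GDP, 2.5 mM MgCl2 with SYPRO Orange; inhibitor at 10 μM. Tm was taken as the minimum of the first derivative of fluorescence versus temperature, relative to control.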

T3 sequence (P49841 whole entry, the tested form may be a part): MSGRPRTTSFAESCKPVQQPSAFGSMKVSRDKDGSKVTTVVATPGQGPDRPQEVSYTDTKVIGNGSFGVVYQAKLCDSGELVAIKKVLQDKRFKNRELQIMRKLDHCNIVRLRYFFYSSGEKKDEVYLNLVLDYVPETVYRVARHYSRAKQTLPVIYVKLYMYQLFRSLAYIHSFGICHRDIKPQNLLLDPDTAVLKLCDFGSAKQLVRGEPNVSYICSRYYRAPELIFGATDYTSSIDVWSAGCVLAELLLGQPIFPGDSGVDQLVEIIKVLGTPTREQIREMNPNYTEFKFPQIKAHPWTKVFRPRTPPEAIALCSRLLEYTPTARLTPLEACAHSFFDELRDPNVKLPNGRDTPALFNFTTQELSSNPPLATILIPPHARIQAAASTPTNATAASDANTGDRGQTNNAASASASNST

Compound	dTm [1] [K]	dTm [2] [K]	dTm [3] [K]	dTm [4] [K]	∆Tm (K) (LRRK2^KW)	∆Tm (K) (LRRK2^KW; listed as 30 (RN277))	∆Tm (K) (LRRK2^KW; listed as RN277)
Cc1ccc(C(=O)Nc2ccc(CN3CCN(C)CC3)c(C(F)(F)F)c2)cc1C#Cc1c[nH]c2ncnc(N3CCOCC3)c12 [Compound 1]	-0.0464	3.91	1.72	0.19	9.5		
O=C(Nc1ccc(F)cc1)C1(C(=O)Nc2cccc(-c3c[nH]c4ncnc(N5CCOCC5)c34)c2)CC1 [Compound 2]	0.75	7.92	6.47	6.81			
O=C(Nc1cccc(-c2c[nH]c3ncnc(N4CCOCC4)c23)c1)c1cccn(-c2ccc(F)cc2)c1=O [Compound 4]	1.12	6.24	5.10	6.49	13.0		
Cc1cc(NC(=O)C2(C(=O)Nc3ccc(F)cc3)CC2)cc(-c2c[nH]c3ncnc(N4CCOCC4)c23)c1 [Compound 6]	0.70	5.04	3.83	0.00	10.0		
O=C(Nc1cccc(-c2c[nH]c3ncnc(N4CCOCC4)c23)c1)C1(C(=O)Nc2cccc3c2CCC3)CC1 [Compound 11]	0.56	4.30	8.12	0.00	9.2		
O=C(Nc1ccccc1)C1(C(=O)Nc2cccc(-c3c[nH]c4ncnc(N5CCOCC5)c34)c2)CC1 [Compound 12]	0.69	6.15	5.87	7.92	9.3		
O=C(Nc1ccc(Cl)cc1)C1(C(=O)Nc2cccc(-c3c[nH]c4ncnc(N5CCOCC5)c34)c2)CC1 [Compound 13]	2.20	9.27	7.55	8.61	9.5		
Cc1ccc(NC(=O)C2(C(=O)Nc3cccc(-c4c[nH]c5ncnc(N6CCOCC6)c45)c3)CC2)cc1 [Compound 14]	0.91	6.23	4.34	4.70	9.1		
CCc1ccc(NC(=O)C2(C(=O)Nc3cccc(-c4c[nH]c5ncnc(N6CCOCC6)c45)c3)CC2)cc1 [Compound 15]	1.12	4.76	5.12	6.64	9.1		
COc1ccc(NC(=O)C2(C(=O)Nc3cccc(-c4c[nH]c5ncnc(N6CCOCC6)c45)c3)CC2)cc1 [Compound 16]	0.60	3.09	2.09	2.09	4.3		
O=C(Nc1cccc(-c2c[nH]c3ncnc(N4CCOCC4)c23)c1)C1(C(=O)Nc2ccc(F)c(F)c2)CC1 [Compound 17]	1.14	7.75	7.13	6.96	10.3		
O=C(Nc1cccc(-c2c[nH]c3ncnc(N4CCOCC4)c23)c1)C1(C(=O)Nc2ccc(F)c(Cl)c2)CC1 [Compound 18]	1.71	9.51	9.62	9.48	12.3		
O=C(Nc1cccc(-c2c[nH]c3ncnc(N4CCOCC4)c23)c1)C1(C(=O)Nc2ccc(F)c(Br)c2)CC1 [Compound 19]	1.65	3.42	0.00	0.00	14.0		
Cc1cc(NC(=O)C2(C(=O)Nc3cccc(-c4c[nH]c5ncnc(N6CCOCC6)c45)c3)CC2)ccc1F [Compound 20]	1.43	10.73	9.68	10.15	13.3		
Cc1ccc(-n2nc(C(C)(C)C)cc2NC(=O)Nc2cccc(-c3c[nH]c4ncnc(N5CCOCC5)c34)c2)cc1 [Compound 29]	-0.55	9.71		6.55	21.0		
Cc1ccc(-n2nc(C(C)(C)C)cc2NC(=O)Nc2cccc(-c3c[nH]c4nc(Cl)nc(N5CCOCC5)c34)c2)cc1 [Compound 30]	-1.13	3.48		-0.13		18.0	18
CC(=O)N1CCN(c2nc(Cl)nc3[nH]cc(-c4cccc(NC(=O)Nc5cc(C(C)(C)C)nn5-c5ccc(C)cc5)c4)c23)CC1 [Compound 31]	-1.18	6.61		2.85	18.0		
COc1cc(C(=O)N2CCOCC2)c(F)cc1Nc1nc(N(C)C)c2c(Cl)c[nH]c2n1 [Compound 36]	-1.69	5.31		10.98	16.0		
COc1cc(S(C)(=O)=O)ccc1Nc1nc(N(C)C)c2c(Cl)c[nH]c2n1 [Compound 37]	-0.55	1.57		9.71			
CCNc1nc(Nc2cc(F)c(C(=O)N3CCOCC3)cc2OC)ncc1C(F)(F)F [GNE-7915]	0.12	4.85	3.70	1.02			
C[C@@H]1CN(c2cc(-c3n[nH]c4ccc(OC5(C)CC5)cc34)ncn2)C[C@H](C)O1 [MLi2]	0.11	1.21	0.56	0.38			
Cn1cc(-c2c[nH]c3ncnc(N4CCOCC4)c23)cc1C#N [PFE-360]	0.0159	1.08	5.50	-2.21			
Cc1ccc(C(=O)Nc2ccc(CN3CCN(C)CC3)c(C(F)(F)F)c2)cc1C#Cc1cnc2cccnn12 [Ponatinib, reference compound]				-1.68	13.0		

— article PMC12136037, “Type II kinase inhibitors that target Parkinson’s disease–associated LRRK2” (Science Advances, 2025)
